# Laboratory results published in patent US9326666B2, “Multi-channel medical imaging system” (Beth Israel Deaconess Medical Center, priority 2002, dated 2016).
# Experiments:
# [1] = test system: mitochondria and/or endoplasmic reticulum; test: Partitioning of dye into subcellular organelles; assay type: cell-based
# Excerpt: (§1) More generally, IR-786 may be used for non-radioactive imaging of areas of ischemia in the living heart, or other visualization of the viability of other tissues.
# [2] = Imaging of blood flow in the heart of a living laboratory rat after thoracotomy; assay type: in vivo
# Excerpt: as §1
# [3] = In vivo early half-life of dye in blood; settings: small molecule form
# Excerpt: This permits multiple injections during a single procedure.
# [4] = Solubility of dye in blood; settings: small molecule form
Compound,partitioning into mitochondria and/or endoplasmic reticulum [1],imaging of blood flow in the heart [2],in vivo early half-life [3],solubility in blood [4]
CN1C(=CC=C2CCCC(C=CC3=[N+](C)c4ccccc4C3(C)C)=C2Cl)C(C)(C)c2ccccc21.[O-][Cl+3]([O-])([O-])[O-] [IR-786],partitions efficiently into mitochondria and/or endoplasmic reticulum in a concentration-dependent manner,successfully applied,–,–
"CC1(C)C(/C=C/C=C/C=C/C=C2\N(CCCCS(=O)(=O)O)c3ccc4ccccc4c3C2(C)C)=[N+](CCCCS(=O)(=O)[O-])c2ccc3ccccc3c21 [Indocyanine green, indocyanine green]",–,–,shorter half-life,somewhat less soluble in blood
